What was measured:
[1] = biological target: T1, GPR17 (Homo sapiens, UniProt Q13304); assay: cAMP accumulation functional assay (HTRF, Schild analysis); format: cell-based; design: host or cells: Flp-In T-REx CHO; conditions: CHO hGPR17 cells, Schild analysis vs MDL29,951, 5 μM forskolin, read-out: cAMP assay pA2 (converted)
Protocol: Flp-In T-REx CHO cells stably expressing human GPR17 receptor (CHO hGPR17) from Evi Kostenis' lab (Bonn University, Germany) were cultured at 37° C. in a humidified atmosphere of 5% CO2. Cells were grown in DMEM with Nutrient Mixture F-12 supplemented with hygromycin B (500 μg/mL) and blasticidin (30 μg/mL). Expression from the Flp-In locus was induced by treatment with doxycycline (1 μg/mL) for 16-20 h prior assays.
GPR17 activation can also recruit Gi-type G-protein signaling, resulting in a decrease of intracellular cyclic adenosine monophosphate (cAMP). Intracellular cAMP changes can be measured using the HTRF cAMP dynamic assay kit from CisBio (Codolet, France). Using homogenous time-resolved fluorescence technology (HTRF), the assay is based on competition between native cAMP produced by cells and cAMP labelled with the dye d2. The tracer binding was determined by an anti-cAMP antibody labeled with cryptate.
CHO hGPR17 were detached with PBS containing EDTA and dispatched in black 384-well plates with 5,000 cells per well. Cells were first incubated for 30 minutes at room temperature in HBSS Hepes (pH 7.4) containing vehicle or varying concentrations of test GPR17 antagonist/inverse agonist compounds. […] After 60 minutes incubation at room temperature, the reaction is terminated and the cells lysed by adding the d2 detection reagent and the cryptate reagent in 10 μL lysis buffer each according to manufacturer's instructions. After 60 minutes incubation, changes in cAMP concentrations are measured according to manufacturer's instructions using an Envision plate reader with laser excitation. All incubations were performed in duplicate. Data was analyzed using GraphPad Prism software using the 4-parameter logistic equation to measure MDL29,951 pEC50s in absence and presence of GPR17 antagonist/inverse agonist test compounds. Dose ratio (DR) were plotted against antagonist concentrations and Schild analysis provided estimated affinity pA2 of GPR17 antagonist/inverse agonist test compounds.
The activities of the Example compounds tested are depicted in the table below. The activity ranges A, B and C refer to pA2 values in the cAMP assay as follows: “A”: pA2<7.5, “B”: pA2 7.5<x≤8.5, “C”: pA2>8.5.

[2] = biological target: T1, GPR17; assay: Calcium mobilization functional assay (GPR17 Ca2+ assay); format: cell-based; design: host or cells: Flp-In T-REx CHO; conditions: CHO hGPR17 cells, inhibition of 50 nM MDL29,951, Calcium 5 dye, FLIPR; read-out: Ca2+ assay pIC50 (converted)
In short: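 pIC50 values were fitted with a 4-parameter logistic curve. They reflect test-compound inhibition of cytosolic Ca2+ release evoked by 50 nM MDL29,951, tracked as Calcium 5 fluorescence at room temperature. Cells were CHO Flp-In T-REx stably carrying human GPR17, induced with doxycycline 1 μg/mL for 16-20 h.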

T1 sequence (Q13304 whole entry): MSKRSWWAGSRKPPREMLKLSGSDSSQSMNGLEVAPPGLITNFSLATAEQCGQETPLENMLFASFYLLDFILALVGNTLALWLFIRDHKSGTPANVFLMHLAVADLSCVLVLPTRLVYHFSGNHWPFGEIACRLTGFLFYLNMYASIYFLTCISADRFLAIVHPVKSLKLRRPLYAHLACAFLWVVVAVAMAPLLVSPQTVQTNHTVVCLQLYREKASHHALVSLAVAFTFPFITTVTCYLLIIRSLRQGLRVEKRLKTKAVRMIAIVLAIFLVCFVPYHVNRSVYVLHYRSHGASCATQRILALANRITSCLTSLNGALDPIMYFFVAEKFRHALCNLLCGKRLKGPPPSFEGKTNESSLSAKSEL

With Cc1noc(C)c1-c1c(Cl)ccc2c(S(=O)(=O)Nc3cc(F)c(Cl)cc3F)c[nH]c12 [Compound I-250, 6-chloro-N-(4-chloro-2,5-difluorophenyl)-7-(3,5-dimethyl-1,2-oxazol-4-yl)-1H-indole-3-sulfonamide] the Kb [1] was 3.16 to 31.6 nM and the IC50 [2] was 3.16 to 31.6 nM.

O=S(=O)(Nc1cccc2nsnc12)c1c[nH]c2ncc(I)cc12 [Compound I-98, N-(2,1,3-benzothiadiazol-4-yl)-5-iodo-1H-pyrrolo[2,3-b]pyridine-3-sulfonamide] gave a Kb [1] of 3.16 to 31.6 nM and an IC50 [2] of 3.16 to 31.6 nM.

O=S(=O)(Nc1ccc(C(F)(F)F)cc1F)c1c[nH]c2nc(Cl)ccc12 [Compound I-296, 6-chloro-N-[2-fluoro-4-(trifluoromethyl)phenyl]-1H-pyrrolo[2,3-b]pyridine-3-sulfonamide] showed a Kb [1] of 3.16 to 31.6 nM and an IC50 [2] of 3.16 to 31.6 nM.

Molecule O=S(=O)(Nc1cccc2nsnc12)c1c[nH]c2cc(C(F)(F)F)ccc12 [Compound I-186, N-(2,1,3-benzothiadiazol-4-yl)-6-(trifluoromethyl)-1H-indole-3-sulfonamide] has a Kb [1] of 3.16 to 31.6 nM and an IC50 [2] of 3.16 to 31.6 nM.

With Cc1cc(F)c(NS(=O)(=O)c2c[nH]c3c(F)c(Cl)ccc23)nc1F [Compound I-355, 6-chloro-N-(3,6-difluoro-5-methylpyridin-2-yl)-7-fluoro-1H-indole-3-sulfonamide] the Kb [1] was 3.16 to 31.6 nM and the IC50 [2] was < 3.16 nM.

For O=S(=O)(Nc1cccc2c1OCO2)c1c[nH]c2cc(Cl)ccc12 [Compound I-25, N-(1,3-benzodioxol-4-yl)-6-chloro-1H-indole-3-sulfonamide], the Kb [1] was 3.16 to 31.6 nM and the IC50 [2] was < 3.16 nM.

In the case of COc1ccc2c(S(=O)(=O)Nc3ccc(Br)cc3F)c[nH]c2c1 [Compound I-293, N-(4-bromo-2-fluorophenyl)-6-methoxy-1H-indole-3-sulfonamide], the Kb [1] is reported as 3.16 to 31.6 nM and the IC50 [2] is reported as 3.16 to 31.6 nM.

For N#Cc1ccc(NS(=O)(=O)c2c[nH]c3cc(F)ccc23)c(F)c1 [Compound I-113, N-(4-cyano-2-fluorophenyl)-6-fluoro-1H-indole-3-sulfonamide], the Kb [1] was > 31.6 nM and the IC50 [2] was 3.16 to 31.6 nM.

With N#Cc1ccc(NS(=O)(=O)c2c[nH]c3cc(Cl)c(Br)cc23)c(F)c1 [Compound I-343, 5-bromo-6-chloro-N-(4-cyano-2-fluorophenyl)-1H-indole-3-sulfonamide] the Kb [1] was < 3.16 nM and the IC50 [2] was 3.16 to 31.6 nM.

In the case of O=S(=O)(Nc1ccc2nsnc2c1)c1c[nH]c2cc(Br)ccc12 [Compound I-183, N-(2,1,3-benzothiadiazol-5-yl)-6-bromo-1H-indole-3-sulfonamide], the Kb [1] is reported as < 3.16 nM and the IC50 [2] is reported as < 3.16 nM.

O=S(=O)(Nc1ccc(I)cc1F)c1c[nH]c2cc(Cl)ccc12 [Compound I-140, 6-chloro-N-(2-fluoro-4-iodophenyl)-1H-indole-3-sulfonamide] was tested, and the Kb [1] was < 3.16 nM and the IC50 [2] was < 3.16 nM.

Work on [N-]=[N+]=Nc1ccc(NS(=O)(=O)c2c[nH]c3cc(Cl)ccc23)c(F)c1 [Compound I-241, N-(4-azido-2-fluorophenyl)-6-chloro-1H-indole-3-sulfonamide] yielded a Kb [1] of 3.16 to 31.6 nM and an IC50 [2] of 3.16 to 31.6 nM.

With COCCCc1cc(F)c(NS(=O)(=O)c2c[nH]c3cc(Cl)ccc23)nc1F [Compound I-253, 6-chloro-N-[3,6-difluoro-5-(3-methoxypropyl)pyridin-2-yl]-1H-indole-3-sulfonamide] the Kb [1] was < 3.16 nM and the IC50 [2] was < 3.16 nM.

For Cc1cc(F)c(NS(=O)(=O)c2c[nH]c3nc(Cl)ccc23)cc1F [Compound I-268, 6-chloro-N-(2,5-difluoro-4-methylphenyl)-1H-pyrrolo[2,3-b]pyridine-3-sulfonamide], the Kb [1] was < 3.16 nM and the IC50 [2] was < 3.16 nM.

O=S(=O)(Nc1ccc(I)cc1F)c1c[nH]c2cc3c(cc12)OCO3 [Compound I-44, N-(2-fluoro-4-iodophenyl)-5H-[1,3]dioxolo[4,5-f]indole-7-sulfonamide] was tested, and the Kb [1] was 3.16 to 31.6 nM and the IC50 [2] was > 31.6 nM.

With COc1ccc2c(S(=O)(=O)Nc3ccc(C(F)(F)F)cc3F)c[nH]c2c1 [Compound I-287, N-(2-fluoro-4-(trifluoromethyl)phenyl)-6-methoxy-1H-indole-3-sulfonamide] the Kb [1] was 3.16 to 31.6 nM and the IC50 [2] was < 3.16 nM.

In the case of COC/C=C/c1cc(F)c(NS(=O)(=O)c2c[nH]c3cc(Br)ccc23)nc1F [Compound I-325, 6-bromo-N-{3,6-difluoro-5-[(1E)-3-methoxyprop-1-en-1-yl]pyridin-2-yl}-1H-indole-3-sulfonamide], the Kb [1] is reported as < 3.16 nM and the IC50 [2] is reported as < 3.16 nM.

In the case of O=S(=O)(Nc1cc(F)c(Cl)cc1F)c1c[nH]c2cc(Cl)c(F)cc12 [Compound I-263, 6-chloro-N-(4-chloro-2,5-difluorophenyl)-5-fluoro-1H-indole-3-sulfonamide], the Kb [1] is reported as 3.16 to 31.6 nM and the IC50 [2] is reported as 3.16 to 31.6 nM.

For COc1nc(NS(=O)(=O)c2c[nH]c3cc(Cl)ccc23)c(F)cc1F [Compound I-345, 6-chloro-N-(3,5-difluoro-6-methoxypyridin-2-yl)-1H-indole-3-sulfonamide], the Kb [1] was 3.16 to 31.6 nM and the IC50 [2] was 3.16 to 31.6 nM.

Work on O=S(=O)(Nc1ccc(I)cc1F)c1c[nH]c2nc(Cl)ccc12 [Compound I-94, 6-chloro-N-(2-fluoro-4-iodophenyl)-1H-pyrrolo[2,3-b]pyridine-3-sulfonamide] yielded a Kb [1] of 3.16 to 31.6 nM and an IC50 [2] of 3.16 to 31.6 nM.

For N#Cc1ccc(NS(=O)(=O)c2c[nH]c3cc(N=[N+]=[N-])ccc23)c(F)c1 [Compound I-335, 6-azido-N-(4-cyano-2-fluorophenyl)-1H-indole-3-sulfonamide], the Kb [1] was 3.16 to 31.6 nM and the IC50 [2] was 3.16 to 31.6 nM.

With N#Cc1ccc(NS(=O)(=O)c2c[nH]c3c4c(ccc23)CCC4)c(F)c1 [Compound I-150, N-(4-cyano-2-fluorophenyl)-1,6,7,8-tetrahydrocyclopenta[g]indole-3-sulfonamide] the Kb [1] was < 3.16 nM and the IC50 [2] was 3.16 to 31.6 nM.

Work on N#Cc1ccc(NS(=O)(=O)c2c[nH]c3cc(OCC(F)(F)F)ccc23)c(F)c1 [Compound I-294, N-(4-cyano-2-fluorophenyl)-6-(2,2,2-trifluoroethoxy)-1H-indole-3-sulfonamide] yielded a Kb [1] of 3.16 to 31.6 nM and an IC50 [2] of 3.16 to 31.6 nM.

In the case of COc1nc(NS(=O)(=O)c2c[nH]c3c(F)c(Cl)ccc23)c(F)cc1Cl [Compound I-319, 6-chloro-N-(5-chloro-3-fluoro-6-methoxypyridin-2-yl)-7-fluoro-1H-indole-3-sulfonamide], the Kb [1] is reported as < 3.16 nM and the IC50 [2] is reported as < 3.16 nM.

N#Cc1ccc(NS(=O)(=O)c2c[nH]c3c(Br)c(Cl)ccc23)c(F)c1 [Compound I-341, 7-bromo-6-chloro-N-(4-cyano-2-fluorophenyl)-1H-indole-3-sulfonamide] was tested, and the Kb [1] was < 3.16 nM and the IC50 [2] was < 3.16 nM.

O=S(=O)(Nc1ncc(F)cc1F)c1c[nH]c2cc(Cl)ccc12 [Compound I-302, 6-chloro-N-(3,5-difluoropyridin-2-yl)-1H-indole-3-sulfonamide] showed a Kb [1] of 3.16 to 31.6 nM and an IC50 [2] of 3.16 to 31.6 nM.

For O=S(=O)(Nc1cc(F)c(Cl)cc1F)c1c[nH]c2cc(Cl)ccc12 [Compound I-204, 6-chloro-N-(4-chloro-2,5-difluorophenyl)-1H-indole-3-sulfonamide], the Kb [1] was < 3.16 nM and the IC50 [2] was 3.16 to 31.6 nM.

COc1ccc2c(S(=O)(=O)Nc3cc(F)c(C#N)cc3OC)c[nH]c2c1 [Compound I-288, N-(4-cyano-5-fluoro-2-methoxyphenyl)-6-methoxy-1H-indole-3-sulfonamide] was tested, and the Kb [1] was 3.16 to 31.6 nM and the IC50 [2] was < 3.16 nM.

In the case of O=S(=O)(Nc1cc(F)c(F)cc1F)c1c[nH]c2c1ccc1ccccc12 [Compound I-52, N-(2,4,5-trifluorophenyl)-1H-benzo[g]indole-3-sulfonamide], the Kb [1] is reported as 3.16 to 31.6 nM and the IC50 [2] is reported as > 31.6 nM.

With O=S(=O)(Nc1cc(F)c(Cl)cc1F)c1coc2cc(Cl)ccc12 [Compound I-198, 6-chloro-N-(4-chloro-2,5-difluorophenyl)-1-benzofuran-3-sulfonamide] the Kb [1] was 3.16 to 31.6 nM and the IC50 [2] was 3.16 to 31.6 nM.

In the case of COc1nc(NS(=O)(=O)c2c[nH]c3nc(Cl)ccc23)c(F)cc1Cl [Compound I-336, 6-chloro-N-(5-chloro-3-fluoro-6-methoxypyridin-2-yl)-1H-pyrrolo[2,3-b]pyridine-3-sulfonamide], the Kb [1] is reported as 3.16 to 31.6 nM and the IC50 [2] is reported as < 3.16 nM.

For O=S(=O)(Nc1cc(F)c(Cl)cc1F)c1c[nH]c2c(Cl)c(Br)ccc12 [Compound I-347, 6-bromo-7-chloro-N-(4-chloro-2,5-difluorophenyl)-1H-indole-3-sulfonamide], the Kb [1] was < 3.16 nM and the IC50 [2] was 3.16 to 31.6 nM.

— patent US12071404B2, “Aza (indole)-, benzothiophene-, and benzofuran-3-sulfonamides” (UCB Pharma GmbH, priority 2016, dated 2024)
